This is an account of results in the CATMoS acute toxicity set (Mansouri et al. 2021).

This data set can be described thus: GHS categories as the set defines them, by LD50: 1 up to 5, 2 up to 50, 3 up to 300, 4 up to 2000, 5 above 2000 mg/kg. The settings on record: rat; in vivo; po.

For `C1CCCCCC2=C(CCCC1)CCCO2`, the GHS category is given as 5.

Molecule `O=C(Cl)CCCCCl` gave a GHS category of 4.

As to `OC(c1ccccc1)c1ccc(-c2ccccc2)cc1` (centres undefined), the GHS category was determined as 5.

The molecule `O=C(O)[C@H](CO)Nc1ccc([N+](=O)[O-])cc1` had a GHS category of 5.

Take `Cc1cc2nc3c(=O)[nH]c(=O)nc-3n(C[C@H](O)[C@H](O)[C@H](O)CO)c2cc1C`: the GHS category came out at 5.

In turn, `CCCCCCCCCCCCCCCNCCCCCCCCCCCCCCC` came in with a GHS category of 5.

In turn, `O=C(O)CCC(=O)O` returned a GHS category of 5.

Molecule `CCOC(=O)C(=O)Nc1cc(OC)nc(-c2ccccc2)n1` had a GHS category of 4.

Consider `CCOc1ccc(OC)cc1-c1nc(=O)c2cc(C(=O)O)ccc2[nH]1`, for which the GHS category is 4.

In turn, `CN(C)CCOC(=O)C(c1ccccc1)C1(O)CCCC1` (centres undefined) had a GHS category of 5.

`C=C1[C@H]2CC[C@@H]3[C@H]2C(C)(C)CCC[C@]13C` gave a GHS category of 5.

In turn, `Cc1cccc2ncc(C(=O)N3CCCC3)c(=O)n12` showed a GHS category of 3.

In turn, `CSC(C)=NOC(=O)N(C)SN(C)C(=O)Oc1ccccc1OC(=O)N(C)SN(C)C(=O)ON=C(C)SC` returned a GHS category of 4.

In turn, `CC(C)c1ccccc1OP(=O)(Oc1ccccc1C(C)C)Oc1ccccc1C(C)C` had a GHS category of 5.

The molecule `CCCCC(CC)C(=O)OC` (centres undefined) returned a GHS category of 5.

`CCCCCCCCCCOCCN1CCCC1=O` had a GHS category of 5.

Regarding `COc1ccc(Cl)cc1C(=O)NCCc1ccc(S(=O)(=O)NC(=O)NC2CCCCC2)cc1`, the GHS category is 5.

`CCn1cc(C(=O)O)c(=O)c2cnc(N3CCCC3)nc21` showed a GHS category of 5.

`C=CC(=C)C`: the GHS category is given as 5.

The molecule `COc1n[nH]c(=O)n1C` showed a GHS category of 5.

In turn, `CCn1cc(C(=O)O)c(=O)c2cc(F)c(N3CCNCC3)cc21` showed a GHS category of 5.

`O=C1c2ccccc2C(=O)c2c(O)ccc(O)c21` showed a GHS category of 5.

For `Cc1ccccc1OC(=O)c1ccccc1OC(N)=O`, the GHS category is recorded as 5.

`CCCCCCCCCCCCCCCCCC(=O)OCCOC(=O)CCCCCCCCCCCCCCCCC` gave a GHS category of 5.

Consider `CCCCCCCCCCCC(=O)OCC(COC(=O)CCCCCC)OC(=O)CCCCCCC` (centres undefined), for which the GHS category was 5.

On to `COC12C[C@@H](CO)CN(C)[C@@H]1Cc1cn(C(C)(C)C)c3cccc2c13` (some centres undefined), for which the GHS category came to 4.

The molecule `CCCCCCC1CCCC1=O` (centres undefined) yielded a GHS category of 5.

In turn, `CC(CCc1ccccc1)NC(C)C(O)c1ccc(O)cc1` (centres undefined) displayed a GHS category of 5.

In the case of `CCCCC/C=C\C/C=C\CCCCCCCC(=O)NC(C)c1ccccc1` (centres undefined), the GHS category is listed as 5.

Consider `CC(C)(C)CC(C)(C)c1cc(-n2nc3ccccc3n2)c(O)c(C(C)(C)c2ccccc2)c1`, for which the GHS category came to 5.

On to `CCN(C(=O)CCCSc1nnnn1C)c1ccccc1`, for which the GHS category was determined as 4.

`Cc1nc2ccccc2c(=O)n1-c1ccccc1C#N`: the GHS category was found to be 4.

As for `CC#CCn1c(Br)nc2c1c(=O)[nH]c(=O)n2C`, the GHS category amounted to 4.

Consider `CNC(=O)C(=NNc1cc([N+](=O)[O-])ccc1OC)C(C)=O`, for which the GHS category came out at 5.

Molecule `NC(=O)c1ccc(NC(=O)c2ccc([N+](=O)[O-])cc2)cc1` gave a GHS category of 5.

`S=P(Oc1ccccc1)(Oc1ccccc1)Oc1ccccc1`: the GHS category is 5.

In the case of `Nc1nc(COc2ccc(Cl)cc2)nc(NCCc2ccccc2)n1`, the GHS category turned out to be 5.

For `CC(C)C1=CC23CCC4C(C)(C(=O)N(C)C)CCCC4(C)C2CC1C1C(=O)OC(=O)C13` (centres undefined), the GHS category came out at 5.

In turn, `CCCCCCCCCCOC(C)=O` yielded a GHS category of 5.

`C[C@H]1C[C@@H]2[C@H]([C@@H](O)C[C@@]3(C)[C@H]2CC[C@]3(O)C(=O)CO)[C@@]2(C)C=CC(=O)C=C12` yielded a GHS category of 5.

Take `CO[C@@]1(NC(=O)CSC[C@@H](N)C(=O)O)C(=O)N2C(C(=O)O)=C(CSc3nnnn3C)CS[C@@H]21`: the GHS category amounted to 5.

In turn, `CCCCCCCCCCCCC1=C(OC(C)=O)C(=O)c2ccccc2C1=O` had a GHS category of 5.

Turning to `COc1cc(OC)nc(NC(=O)NS(=O)(=O)c2ncccc2C(F)(F)F)n1`, the GHS category was 5.

`CC1COC(Cn2cncn2)(c2cc3ccccc3o2)O1` (centres undefined): the GHS category was found to be 4.

For `CC(C)(Oc1ccc(Cl)cc1)C(=O)NC(=O)NCN1CCOCC1`, the GHS category is recorded as 5.

As for `CSc1nnc(C(C)(C)C)c(=O)n1/N=C/C(C)C`, the GHS category turned out to be 5.

In turn, `Cc1ccc(C(=O)O)c(Oc2ccccc2CC(=O)O)c1C` returned a GHS category of 5.

`CC(CO)CO` had a GHS category of 5.

`Cc1cc(C(=O)Nc2ccccc2C)n[nH]1` returned a GHS category of 5.

In the case of `CC(=O)Nc1cc(NS(=O)(=O)C(F)(F)F)c(C)cc1C`, the GHS category is 5.

For `O=C1OCCC1O` (centres undefined), the GHS category is on record as 5.

Consider `CCOC(=O)Oc1c(OC)cc(C(=O)O[C@@H]2C[C@@H]3CN4CCc5c([nH]c6cc(OC)ccc56)[C@H]4C[C@@H]3[C@H](C(=O)OC)[C@H]2OC)cc1OC`, for which the GHS category is 5.

As to `O=C(CC(=O)c1ccccc1)c1ccccc1`, the GHS category turned out to be 5.

For the molecule `CC1(C(O)CO)OC(c2ccc(Cl)cc2)OC2COC(c3ccc(Cl)cc3)OC21` (centres undefined), the GHS category was determined as 5.

As for `CCCCC(CC)CN1CN(CC(CC)CCCC)CC(C)(N)C1` (centres undefined), the GHS category is listed as 4.

As to `O=C(O)c1ccc(OCCn2ccnc2)cc1`, the GHS category was found to be 4.

Molecule `CC1NC(=S)C(C(O)O)C(O)C1C` (centres undefined) yielded a GHS category of 5.

`CCCCCCCCCCN(C)C` came in with a GHS category of 5.

For `Cc1ccc2c(-c3ccc(F)cc3)nc(=O)n(C(C)C)c2c1`, the GHS category was determined as 5.

Regarding `Cc1cc(O)c(C)c2c1OC(C)(CCCC(C)CCCC(C)CCCC(C)C)CC2` (racemic), the GHS category is 5.

Regarding `NC(N)=N[C@@H](CS)C(=O)O`, the GHS category was found to be 5.

`NC(=O)OCC(COC(N)=O)c1ccccc1`: the GHS category is 5.

Molecule `CCCCCCCCCCCCCCCCOC(=O)C(CC)CCCC` (centres undefined) gave a GHS category of 5.

Molecule `CCSCCO` came in with a GHS category of 5.

The molecule `CCCCCCCCCCCCCCCCCCSSCCCCCCCCCCCCCCCCCC` returned a GHS category of 5.

The molecule `CNS(=O)(=O)c1ccccc1-c1nnc(N)s1` returned a GHS category of 5.

`CCCCC/C=C\C=C\C(=O)OCC` showed a GHS category of 5.

In the case of `COC(=O)CCCCC(=O)OC`, the GHS category stood at 5.

`O=C(Cc1ccccc1)Cc1ccccc1` returned a GHS category of 5.

`COc1cnc(OC)n2nc(NS(=O)(=O)c3c(OCC(F)F)cccc3C(F)(F)F)nc12`: the GHS category is on record as 5.

Molecule `C=C(C)C(=O)OCCOCCOCCCC` had a GHS category of 5.

With `FC(F)(F)c1cccc(C(F)(F)F)c1`, the GHS category is given as 5.

For the molecule `CCCCCCCCCCCCCCCCN(C)C`, the GHS category is on record as 5.

`CC[C@H]1OC(=O)[C@H](C)[C@@H](O[C@H]2C[C@@](C)(OC)[C@@H](O)[C@H](C)O2)[C@H](C)[C@@H](O[C@@H]2O[C@H](C)C[C@H](N(C)C)[C@H]2O)[C@](C)(O)C[C@@H](C)CN(C)[C@H](C)[C@@H](O)[C@]1(C)O` returned a GHS category of 5.

In turn, `CCN(CC)CCC1=NC(=C2C=CC(=O)C=C2)NO1` had a GHS category of 5.

The molecule `O=CC(O)C(O)C(O)C(O)COC1OC(CO)C(O)C(O)C1O` (centres undefined) gave a GHS category of 4.

For the molecule `c1ccc2oc(C3(Cn4cncn4)OCCCO3)cc2c1`, the GHS category stood at 4.

`CC(c1ccccc1)C1Nc2cc(Cl)c(S(N)(=O)=O)cc2S(=O)(=O)N1` (centres undefined) displayed a GHS category of 5.

For `C[Si](Cl)(Cl)c1ccccc1`, the GHS category is 3.

As for `Cc1nnc(SCC2=C(C(=O)O)N3C(=O)[C@@H](NC(=O)Cn4cnnn4)[C@H]3SC2)s1`, the GHS category amounted to 5.

`CCCC/C=C/CC/C=C\CCCCCCOC(C)=O`: the GHS category turned out to be 5.

As to `CN1C(=O)c2ccc3c4ccc5c6c(ccc(c7ccc(c2c37)C1=O)c64)C(=O)N(C)C5=O`, the GHS category is given as 5.

Consider `CCC(=O)C=Cc1ccc(OC)cc1`, for which the GHS category came out at 5.

Molecule `CC(C)=CCC(C#N)(CCN1CCOCC1)c1cccc2ccccc12` (centres undefined) gave a GHS category of 4.

`CS(=O)(=O)c1cc(C(F)(F)F)ccc1C(=O)c1cnoc1C1CC1` gave a GHS category of 5.

Turning to `Brc1cc(Br)c(Oc2nc(Oc3c(Br)cc(Br)cc3Br)nc(Oc3c(Br)cc(Br)cc3Br)n2)c(Br)c1`, the GHS category worked out at 5.

The molecule `C=CC(=C)CCC=C(C)CCC=C(C)C=O` yielded a GHS category of 5.

The molecule `Nc1c(I)c(C(=O)O)c(I)c(C(=O)O)c1I` yielded a GHS category of 5.

The molecule `Cc1cc(C(C)(C)C)c(OP2COC3(COP(Oc4c(C(C)(C)C)cc(C)cc4C(C)(C)C)OC3)OC2)c(C(C)(C)C)c1` (centres undefined) yielded a GHS category of 5.

`CC12CCCC(O)(C1)C1CC(C)(C)C1CC2` (centres undefined): the GHS category was found to be 5.

In turn, `COC(=O)CC(C)C(=O)c1ccc(NC(=O)c2ccc(OC)cc2)c([N+](=O)[O-])c1` (centres undefined) came in with a GHS category of 5.

The molecule `CCCCCNCC(N)=O` returned a GHS category of 5.

On to `CCO[Si](CC(C)CC(C)(C)C)(OCC)OCC` (centres undefined), for which the GHS category is 5.

The molecule `CC(O)(CC(=O)O)c1ccc(C2CCCCC2)c(Cl)c1` (centres undefined) displayed a GHS category of 4.

`COc1cc(Cl)c(OC)cc1Cl` gave a GHS category of 5.

Take `CCOC(=O)C(=O)Nc1cc(OCCOC)ncn1`: the GHS category turned out to be 4.

`CCn1c2ccccc2c2ccccc21`: the GHS category is listed as 5.

`CS/C(=N\O)C(=O)N(C)C` had a GHS category of 5.

The molecule `CCN(C)c1cc(=O)c2c(ccc3ccccc32)o1` returned a GHS category of 4.

The molecule `O=C(O)C[C@H](NCCN[C@@H](CC(=O)O)C(=O)O)C(=O)O` registered a GHS category of 5.

For `CCCCC/C=C\CCC(CCCCCCCC(=O)O)C(CCCCCCCC)CCCCCCCCC(=O)O` (centres undefined), the GHS category is listed as 5.

For the molecule `O=C1NC(=O)C(c2ccc(O)cc2)(c2cccs2)N1` (centres undefined), the GHS category is 5.

On to `CC1CC(OC(=O)C(C)Oc2ccccc2Cl)CC(C)(C)C1` (centres undefined), for which the GHS category was 5.

Molecule `CC1Oc2cc(C(=O)c3cccs3)ccc2N(C)C1=O` (centres undefined) registered a GHS category of 5.
